± gives the expanded uncertainty stated by the source.
Experiment: xn = mol fraction of the nth substance listed
Settings: Gas, Buoyancy - hydrostatic balance with magnetic suspension - one sinker

## [HH] [hydrogen] + C
324.96 K, 10000 kPa, x2 = 0.9
  mass density: 58.331 ± 0.044 kg/m3
324.96 K, 11000 kPa, x2 = 0.4997
  mass density: 36.202 ± 0.047 kg/m3
324.96 K, 11001 kPa, x2 = 0.9
  mass density: 64.438 ± 0.045 kg/m3
324.96 K, 12002 kPa, x2 = 0.4997
  mass density: 39.381 ± 0.051 kg/m3
324.96 K, 12003 kPa, x2 = 0.9
  mass density: 70.531 ± 0.045 kg/m3
324.96 K, 12999 kPa, x2 = 0.4997
  mass density: 42.522 ± 0.053 kg/m3
324.96 K, 13002 kPa, x2 = 0.9
  mass density: 76.592 ± 0.046 kg/m3
324.96 K, 14000 kPa, x2 = 0.4997
  mass density: 45.642 ± 0.056 kg/m3
324.96 K, 14001 kPa, x2 = 0.9499
  mass density: 88.324 ± 0.048 kg/m3
324.96 K, 14003 kPa, x2 = 0.9
  mass density: 82.625 ± 0.047 kg/m3
324.96 K, 14998 kPa, x2 = 0.4997
  mass density: 48.72 ± 0.06 kg/m3
324.96 K, 15000 kPa, x2 = 0.9
  mass density: 88.578 ± 0.047 kg/m3
324.96 K, 15003 kPa, x2 = 0.9499
  mass density: 94.801 ± 0.049 kg/m3
324.96 K, 15999 kPa, x2 = 0.4997
  mass density: 51.775 ± 0.063 kg/m3
324.96 K, 16001 kPa, x2 = 0.9
  mass density: 94.491 ± 0.048 kg/m3
324.96 K, 16003 kPa, x2 = 0.9499
  mass density: 101.187 ± 0.05 kg/m3
324.96 K, 16999 kPa, x2 = 0.4997
  mass density: 54.795 ± 0.066 kg/m3
324.96 K, 16999 kPa, x2 = 0.9
  mass density: 100.301 ± 0.049 kg/m3
324.96 K, 17994 kPa, x2 = 0.4997
  mass density: 57.761 ± 0.069 kg/m3
324.96 K, 18000 kPa, x2 = 0.9499
  mass density: 113.635 ± 0.05 kg/m3
324.96 K, 18006 kPa, x2 = 0.9
  mass density: 106.065 ± 0.049 kg/m3
324.96 K, 19001 kPa, x2 = 0.9
  mass density: 111.659 ± 0.051 kg/m3
324.96 K, 19002 kPa, x2 = 0.4997
  mass density: 60.728 ± 0.072 kg/m3
324.96 K, 19004 kPa, x2 = 0.9499
  mass density: 119.703 ± 0.051 kg/m3
324.96 K, 19631 kPa, x2 = 0.4997
  mass density: 62.562 ± 0.075 kg/m3
324.96 K, 19902 kPa, x2 = 0.9
  mass density: 116.626 ± 0.051 kg/m3
324.96 K, 19924 kPa, x2 = 0.9499
  mass density: 125.148 ± 0.054 kg/m3
324.97 K, 999 kPa, x2 = 0.9499
  mass density: 5.733 ± 0.038 kg/m3
324.97 K, 1999 kPa, x2 = 0.9499
  mass density: 11.594 ± 0.039 kg/m3
324.97 K, 2985 kPa, x2 = 0.9499
  mass density: 17.488 ± 0.039 kg/m3
324.97 K, 3998 kPa, x2 = 0.9499
  mass density: 23.665 ± 0.041 kg/m3
324.97 K, 4999 kPa, x2 = 0.9499
  mass density: 29.867 ± 0.042 kg/m3
324.97 K, 5999 kPa, x2 = 0.9499
  mass density: 36.165 ± 0.042 kg/m3
324.97 K, 6999 kPa, x2 = 0.9499
  mass density: 42.544 ± 0.043 kg/m3
324.97 K, 7999 kPa, x2 = 0.9499
  mass density: 49.004 ± 0.044 kg/m3
324.97 K, 10000 kPa, x2 = 0.9499
  mass density: 62.076 ± 0.046 kg/m3
324.97 K, 11004 kPa, x2 = 0.9499
  mass density: 68.681 ± 0.046 kg/m3
324.97 K, 12002 kPa, x2 = 0.9499
  mass density: 75.249 ± 0.047 kg/m3
324.97 K, 13002 kPa, x2 = 0.9499
  mass density: 81.811 ± 0.048 kg/m3
324.97 K, 17001 kPa, x2 = 0.9499
  mass density: 107.464 ± 0.049 kg/m3
349.95 K, 999 kPa, x2 = 0.9
  mass density: 5.061 ± 0.035 kg/m3
349.95 K, 999 kPa, x2 = 0.9499
  mass density: 5.309 ± 0.036 kg/m3
349.95 K, 1003 kPa, x2 = 0.4997
  mass density: 3.109 ± 0.029 kg/m3
349.95 K, 1999 kPa, x2 = 0.9
  mass density: 10.188 ± 0.035 kg/m3
349.95 K, 1999 kPa, x2 = 0.9499
  mass density: 10.702 ± 0.033 kg/m3
349.95 K, 2004 kPa, x2 = 0.4997
  mass density: 6.207 ± 0.029 kg/m3
349.95 K, 2985 kPa, x2 = 0.9
  mass density: 15.301 ± 0.036 kg/m3
349.95 K, 2999 kPa, x2 = 0.9499
  mass density: 16.173 ± 0.037 kg/m3
349.95 K, 3002 kPa, x2 = 0.4997
  mass density: 9.284 ± 0.03 kg/m3
349.95 K, 3999 kPa, x2 = 0.9
  mass density: 20.614 ± 0.037 kg/m3
349.95 K, 4000 kPa, x2 = 0.9499
  mass density: 21.712 ± 0.038 kg/m3
349.95 K, 4004 kPa, x2 = 0.4997
  mass density: 12.364 ± 0.031 kg/m3
349.95 K, 4999 kPa, x2 = 0.9
  mass density: 25.902 ± 0.038 kg/m3
349.95 K, 4999 kPa, x2 = 0.9499
  mass density: 27.309 ± 0.039 kg/m3
349.95 K, 5003 kPa, x2 = 0.4997
  mass density: 15.42 ± 0.032 kg/m3
349.95 K, 5998 kPa, x2 = 0.9
  mass density: 31.226 ± 0.039 kg/m3
349.95 K, 5998 kPa, x2 = 0.9499
  mass density: 32.957 ± 0.04 kg/m3
349.95 K, 6002 kPa, x2 = 0.4997
  mass density: 18.469 ± 0.034 kg/m3
349.95 K, 6998 kPa, x2 = 0.9
  mass density: 36.584 ± 0.039 kg/m3
349.95 K, 7000 kPa, x2 = 0.9499
  mass density: 38.671 ± 0.041 kg/m3
349.95 K, 7001 kPa, x2 = 0.4997
  mass density: 21.49 ± 0.036 kg/m3
349.95 K, 7998 kPa, x2 = 0.9499
  mass density: 44.399 ± 0.041 kg/m3
349.95 K, 7999 kPa, x2 = 0.9
  mass density: 41.97 ± 0.04 kg/m3
349.95 K, 8001 kPa, x2 = 0.4997
  mass density: 24.491 ± 0.037 kg/m3
349.95 K, 8997 kPa, x2 = 0.9
  mass density: 47.361 ± 0.041 kg/m3
349.95 K, 8997 kPa, x2 = 0.9499
  mass density: 50.163 ± 0.042 kg/m3
349.95 K, 9000 kPa, x2 = 0.4997
  mass density: 27.473 ± 0.039 kg/m3
349.95 K, 9996 kPa, x2 = 0.9499
  mass density: 55.938 ± 0.043 kg/m3
349.95 K, 9999 kPa, x2 = 0.4997
  mass density: 30.433 ± 0.042 kg/m3
349.95 K, 10000 kPa, x2 = 0.9
  mass density: 52.782 ± 0.041 kg/m3
349.95 K, 10999 kPa, x2 = 0.9499
  mass density: 61.741 ± 0.043 kg/m3
349.95 K, 11000 kPa, x2 = 0.9
  mass density: 58.181 ± 0.042 kg/m3
349.95 K, 11001 kPa, x2 = 0.4997
  mass density: 33.381 ± 0.044 kg/m3
349.95 K, 11995 kPa, x2 = 0.4997
  mass density: 36.281 ± 0.046 kg/m3
349.95 K, 11997 kPa, x2 = 0.9499
  mass density: 67.507 ± 0.044 kg/m3
349.95 K, 12003 kPa, x2 = 0.9
  mass density: 63.582 ± 0.042 kg/m3
349.95 K, 12996 kPa, x2 = 0.4997
  mass density: 39.178 ± 0.049 kg/m3
349.95 K, 12998 kPa, x2 = 0.9499
  mass density: 73.267 ± 0.044 kg/m3
349.95 K, 13000 kPa, x2 = 0.9
  mass density: 68.93 ± 0.043 kg/m3
349.95 K, 13993 kPa, x2 = 0.4997
  mass density: 42.035 ± 0.051 kg/m3
349.95 K, 13994 kPa, x2 = 0.9
  mass density: 74.229 ± 0.044 kg/m3
349.95 K, 13998 kPa, x2 = 0.9499
  mass density: 78.993 ± 0.044 kg/m3
349.95 K, 14997 kPa, x2 = 0.9499
  mass density: 84.669 ± 0.045 kg/m3
349.95 K, 14998 kPa, x2 = 0.9
  mass density: 79.534 ± 0.044 kg/m3
349.95 K, 15001 kPa, x2 = 0.4997
  mass density: 44.896 ± 0.054 kg/m3
349.95 K, 15997 kPa, x2 = 0.9
  mass density: 84.764 ± 0.045 kg/m3
349.95 K, 15998 kPa, x2 = 0.4997
  mass density: 47.697 ± 0.057 kg/m3
349.95 K, 15998 kPa, x2 = 0.9499
  mass density: 90.284 ± 0.045 kg/m3
349.95 K, 16997 kPa, x2 = 0.4997
  mass density: 50.454 ± 0.059 kg/m3
349.95 K, 16998 kPa, x2 = 0.9499
  mass density: 95.842 ± 0.046 kg/m3
349.95 K, 17000 kPa, x2 = 0.9
  mass density: 89.954 ± 0.045 kg/m3
349.95 K, 17989 kPa, x2 = 0.4997
  mass density: 53.192 ± 0.059 kg/m3
349.95 K, 17998 kPa, x2 = 0.9499
  mass density: 101.317 ± 0.047 kg/m3
349.95 K, 19002 kPa, x2 = 0.4997
  mass density: 55.94 ± 0.066 kg/m3
349.95 K, 19002 kPa, x2 = 0.9499
  mass density: 106.734 ± 0.047 kg/m3
349.95 K, 19350 kPa, x2 = 0.9
  mass density: 101.832 ± 0.047 kg/m3
349.95 K, 19873 kPa, x2 = 0.9499
  mass density: 111.352 ± 0.047 kg/m3
349.95 K, 19933 kPa, x2 = 0.4997
  mass density: 58.441 ± 0.066 kg/m3
